The results in this text go back to PMC12718261, “New Fluorescent Synthetic Retinoids as Potential RAR Agonists with Anticancer, Molecular Docking and ADME Assessments” (Journal of Fluorescence, 2025).

What is called IC50 is the concentration at which inhibition is half-maximal. Low readings indicate higher potency, high ones lower potency.

Holding throughout (format): cell-based
Data set [1] relates to WI-38 normal human fibroblast cells. As to the kind of experiment: MTT cytotoxicity assay on normal fibroblasts. The settings on record: WI-38 normal fibroblast cells, 24 h, mean ± SEM. The protocol: (§1) The antiproliferation and cytotoxicity were assessed using 3-(4,5-dimethylthiazol-2-yl)−2,5-diphenyltetrazolium bromide (MTT, Serva) colorimetric assay. All tested cancer cell lines were seeded at a density of 20,000 cells per well in 96-well plates and allowed to adhere overnight. The attached cells were treated with five serial dilutions (100, 50, 5, 0.5, and 0.1 μM) in triplicate. These concentrations were prepared by diluting the stock solutions with serum-free culture media. The negative control cells were those treated with 0.1% DMSO solvent alone. The treated cells were handled in reduced light and maintained under standard culture growth conditions for 24 h. After the incubation period, MTT powder was prepared as a stock solution (5 mg/mL), and 20 μL of the MTT working reagent (final concentration 0.5 mg/mL) was added to each well. This was followed by incubation with MTT reagent for 4 h in a humidified atmosphere (37 °C, 5% CO2) with subsequent addition of 150 μL of DMSO solubilizing solvent and incubation for 20 min. The absorbance of solubilized violet formazan crystals was measured at 570 nm with a Biotek 800 TS microplate reader. IC50 was calculated as the concentration of retinoid that produced 50% cell growth inhibition. For cytotoxicity assessment, WI-38 normal human fibroblast cells were used for the calculation of SI, which is the ratio of IC50 retinoid (WI-38)/IC50 retinoid (cancer cell line).
A general note: Tetrazolium dyes change colour on reduction, which living cells bring about.

In another data set the test system is Caco-2. As to the kind of experiment: MTT anti-proliferative assay. The settings on record: Homo sapiens; Caco-2, MTT, 24 h, mean ± SEM. The protocol: as §1
The test system of the next data set is MCF-7. Kind of data set: MTT anti-proliferative assay. The settings on record: Homo sapiens, MCF7; MCF-7, MTT, 24 h, mean ± SEM. Here is the method: as §1
A further data set deals with PC-3. Kind of data set: MTT anti-proliferative assay. The settings on record: Homo sapiens; PC-3, MTT, 24 h, mean ± SEM. Here is the method: as §1
Another data set deals with MDA-MB231. As to the kind of experiment: MTT anti-proliferative assay. The settings on record: Homo sapiens, MDA-MB-231, 24 h, mean ± SEM. The protocol:
as §1

In another data set the test system is HepG-2. Kind of data set: MTT anti-proliferative assay. The settings on record: Homo sapiens, HepG2; HepG-2, MTT, 24 h, mean ± SEM. The protocol:
as §1

The subject of a further data set is HCT-116. As to the kind of experiment: MTT anti-proliferative assay. The settings on record: Homo sapiens; HCT-116, MTT, 24 h, mean ± SEM. The protocol: as §1
For data set [2], the system named is CRABPI gene in Caco-2 cells. As to the kind of experiment: Gene expression RT-qPCR. The settings on record: Caco-2, IC50 dose, 24 h, relative to 0.1% DMSO, normalized to GAPDH. The protocol:
(§2) The gene expression analysis was performed using real-time quantitative PCR (RT-qPCR), as previously documented. After incubation, cells were harvested, and total RNA was extracted using the Favor-PrepTM Blood/Cultured Cell Total RNA Purification Mini kit (Favorgen Biotech Corp., Ping-Tung, Taiwan). The purified RNA was then reverse transcribed into the first-strand cDNA using the Revert Aid First-Strand cDNA Synthesis Kit (Thermo Scientific, Waltham, MA, USA). All qPCR reactions were carried out using the […] SYBR® Green qPCR Kit (Willowfort, Nottingham, UK). Differential gene expression was performed using the 2ˆ^−ΔΔCT method utilizing GAPDH as a reference gene.
For orientation: Real-time PCR tracks product formation cycle by cycle.

Data set [3] concerns CRABPII gene in Caco-2 cells. As to the kind of experiment: Gene expression RT-qPCR. The settings on record: Caco-2, IC50 dose, 24 h, relative to 0.1% DMSO, normalized to GAPDH. The protocol: as §2
In data set [4] the test system is Caspase-3 gene in Caco-2 cells. Kind of data set: Gene expression RT-qPCR. The settings on record: Caco-2, IC50 dose, 24 h, relative to 0.1% DMSO, normalized to GAPDH. The protocol: as §2
Data set [5] deals with RAR-γ gene in Caco-2 cells. As to the kind of experiment: Gene expression RT-qPCR. The settings on record: Caco-2, IC50 dose, 24 h, relative to 0.1% DMSO, normalized to GAPDH. The protocol:
as §2

Data set [6] has as its system RAR-α gene in Caco-2 cells. As to the kind of experiment: Gene expression RT-qPCR. The settings on record: Caco-2, IC50 dose, 24 h, relative to 0.1% DMSO, normalized to GAPDH. The protocol:
as §2

Data set [7] has as its system Cyt-C gene in Caco-2 cells. As to the kind of experiment: Gene expression RT-qPCR. The settings on record: Caco-2, IC50 dose, 24 h, relative to 0.1% DMSO, normalized to GAPDH. The protocol:
as §2

Data set [8] concerns calcium-independent ATPases in Caco-2 cells. Kind of data set: Calcium-independent ATPase activity, malachite green colorimetric. The settings on record: Caco-2, IC50 dose, 24 h; 0.1% DMSO control normalized to 100%. The protocol: (§3) The total activity of ATPase and calcium-independent ATPase activity was quantified colorimetrically as described by our previous protocol. […] The inorganic phosphate (Pi) liberated after the hydrolysis of ATP by ATPase enzymes was complexed into a colored product in one step after the addition of a mixed reagent containing malachite green, ammonium molybdate, and polyvinyl alcohol (2:1:1). The intensity of absorbance at 630 nm was measured using the BioTek 800 TS absorbance plate reader (USA) and was directly proportional to the quantity of liberated Pi. In order to eliminate any color due to the non-enzymatic hydrolysis of ATP, control reactions were made using only ATP in the reaction buffer, and the absorbance intensity was then subtracted from the readings of the samples and standards.

Data set [9] concerns RAR-α, RAR-β, RAR-γ proteins in Caco-2 cells. Kind of data set: Western blotting of RAR proteins. The settings on record: Caco-2, IC50 dose, 24 h, normalized to β-actin. Here is the method: Using the previously outlined protocol, the western blot technique was used to determine the expression of RAR-α (Cat. No. E6Z6 K, cell signaling, USA), RAR-β (Cat. No. PP-H4338-00, R&D systems, USA) and RAR- γ (Cat. No. D3 A4, cell signaling, USA) in Caco-2 cells. […] Following incubation, floating adhered cells were separated and lysed. The Caco-2 cell lysate was immediately collected, subjected to sonication, and centrifuged for 15 min at 12,000 × g. The total soluble protein content was measured colorimetrically using the PierceTM 660 nm Assay (Thermo Scientific, Waltham, MA, USA) after the resultant supernatant was separated. The Gel documentation system (Geldoc-it, UVP, England) was applied for data analysis using Totallab analysis software (Ver.1.0.1) (ww.totallab.com).
In general terms: A western blot detects proteins with antibodies after separation by electrophoresis.

Data set [10] concerns Caco-2 cancer cells. As to the kind of experiment: Cell cycle assay PI staining flow cytometry. The settings on record: Caco-2, IC50 dose, 24 h. The protocol:
The standard protocol used in HSBR was performed. […] Cells were concentrated at 1500 xg and suspended in 50 μg/ml propidium iodide (PI) staining solution and 20 µg/ml RNaseA to identify cells with a sub-G1 DNA content. Cytoflex flow cytometer (Beckman Coulter, USA) was used, and CytExpert software (version 2.4.0.28) was employed for data analysis. The gating strategy used to eliminate doublets depends on plotting the population against a 2D contour plot in four quadrants, referred to as Q1(LL), Q2 (LR), Q3 (UL), and Q4 (UR), that illustrates the spread of the Annexin-FITC-H core cell population against PI PE-H.

In data set [11] the test system is Caco-2 cancer cells. As to the kind of experiment: Apoptosis assay Annexin V/PI flow cytometry. The settings on record: Caco-2, IC50 dose, 24 h, AV/PI. Here is the method: The standard protocol used in HSBR was performed. […] Cells were rinsed with 1 mL of binding buffer; the cells were again suspended in phosphate-buffered saline (PBS) (Lonza). 100 µL of cell suspension was incubated with 1 µL of FITC-labeled Annexin-V and 5 µL of PI for 15 min at 4 °C in the dark. The suspension was then mixed with 400 µL of ice-cold binding buffer, and each sample's apoptotic cells were analyzed using a Cytoflex flow cytometer (Beckman Coulter, USA), and CytExpert software (version 2.4.0.28) was employed for data analysis.

The test system of data set [12] is total ATPase in Caco-2 cells. Kind of data set: Total ATPase activity, malachite green colorimetric. The settings on record: Caco-2, IC50 dose, 24 h; 0.1% DMSO control normalized to 100%. Here is the method:
as §3

Data set [13] deals with RAR-β gene in Caco-2 cells. As to the kind of experiment: Gene expression RT-qPCR. The settings on record: Caco-2, IC50 dose, 24 h, relative to 0.1% DMSO, normalized to GAPDH.
Procedure: The gene expression analysis was performed using real-time quantitative PCR (RT-qPCR), as previously documented [38]. After incubation, cells were harvested, and total RNA was extracted using the Favor-PrepTM Blood/Cultured Cell Total RNA Purification Mini kit (Favorgen Biotech Corp., Ping-Tung, Taiwan). The purified RNA was then reverse transcribed into the first-strand cDNA using the Revert Aid First-Strand cDNA Synthesis Kit (Thermo Scientific, Waltham, MA, USA). […] SYBR® Green qPCR Kit (Willowfort, Nottingham, UK). Differential gene expression was performed using the 2ˆ^−ΔΔCT method utilizing GAPDH as a reference gene [39].

Where “and” joins values, the source holds several entries; their conditions need not be identical. Equal entries are not always repeated.

Compound `O=C(O)c1ccc2cc(-c3ccc4c(c3)CCCO4)ccc2c1` [Compound 4b, 6-(chroman-6-yl)−2-naphthoic acid] came in with an IC50 in data set [1] of 33.5 ± 3.4 µM. Further, in the data set on Caco-2, half-maximal inhibition (IC50) was put at 15 ± 0.4 µM. This compound had an IC50 in the data set with MCF-7 of 53.1 ± 5.4 µM. In the data set with PC-3, this compound showed a half-inhibitory concentration (IC50) of 2.71 ± 0.2 µM. Moreover, the IC50 in the data set with MDA-MB231 was 2.28 ± 0.2 µM. The same compound returned an IC50 in the data set on HepG-2 of 59.5 ± 3.5 µM. The compound further gave an IC50 in the data set with HCT-116 of 36.9 ± 2.4 µM. Moreover, the “CRABPI gene expression fold change” value in data set [2] was found to be 53.5 ± 2.4 fold. In addition, in data set [3], the “CRABPII gene expression fold change” value is 2.0 ± 0.1 fold. Moreover, the “caspase-3 gene expression fold change” value in data set [4] is recorded as 2.3 ± 0.1 fold. In [5], the “RAR-γ gene expression fold change” value amounted to 4.3 ± 0.2 fold. In addition, the “RAR-α gene expression fold change” value in data set [6] is listed as 2.9 ± 0.1 fold. For the same compound, the “Cyt-C gene expression fold change” value in [7] was 1.7 ± 0.1 fold. In addition, in data set [8], the “ca+2-independent ATPase activity” value was 36.1%. Also, the “RAR protein expression (western blot)” value in data set [9] is reported as “overexpression of all RAR subtypes”. Also, in the data set on Caco-2 cancer cells [10], the “% G0-G1” value is 17.69 ± 3.2%; the “% G2M” value is 1.76 ± 0.1%; the “% S” value stood at 4.16 ± 1.5%; the “% SubG0-G1” value was 76.81% and 76.81 ± 6.7 %. Further, in the data set on Caco-2 cancer cells [11], the “% Early apoptotic cells (LR)” value is 61.41% and 61.41 ± 5.3 %; the “% Late apoptotic cells (UL)” value was 0.09%; the “% Necrotic cells (UR)” value is on record as 38.12 ± 2.8 %; the “% Viable cells (LL)” value turned out to be 0.37%. Further, in data set [12], the “total ATPase activity” value was found to be 34.6%.
`CC1=C(/C=C/C(C)=C/C=C/C(C)=C/C(=O)O)C(C)(C)CCC1` [ATRA, all-trans-retinoic acid, reference compound]: the IC50 in data set [1] came out at 46.9 ± 2.8 µM; in the data set on Caco-2, 11.4 ± 0.3 µM; in the data set on MCF-7, 4.93 ± 0.4 µM; in the data set with PC-3, 2.21 ± 0.1 µM; in the data set on MDA-MB231, 10.4 ± 0.2 µM; in the data set with HepG-2, 16 ± 1.3 µM. Moreover, the concentration for half-maximal inhibition (IC50) in the data set with HCT-116 was 38.8 ± 0.9 µM. Further, in data set [2], the “CRABPI gene expression fold change” value came out at 1.2 fold. In [3], the “CRABPII gene expression fold change” value was “no effect”. For the same compound, the “caspase-3 gene expression fold change” value in data set [4] was found to be 1.6 ± 0.1 fold. Besides, the “RAR-γ gene expression fold change” value in data set [5] was determined as 4.1 ± 0.2 fold. Further, the “Cyt-C gene expression fold change” value in data set [7] stood at 7.7 ± 0.3 fold. For the same compound, the “ca+2-independent ATPase activity” value in [8] is on record as 39.4%. Moreover, the “RAR-β gene expression fold change” value in data set [13] was 35.3 ± 1.6 fold. Besides, the “% G0-G1” value in the data set with Caco-2 cancer cells [10] is given as 17.37 ± 6.1%. For the same compound, the “% G2M” value in the data set with Caco-2 cancer cells [10] stood at 3.05 ± 0.7%. The “% S” value with Caco-2 cancer cells [10] was 5.39 ± 1.4%. The “% SubG0-G1” value with Caco-2 cancer cells [10] came out at 74.63 ± 5.8 %. Moreover, the “% Early apoptotic cells (LR)” value in the data set with Caco-2 cancer cells [11] turned out to be 1.20 ± 0.1%. Also, the “% Late apoptotic cells (UL)” value with Caco-2 cancer cells [11] was 0.03%. Besides, the “% Necrotic cells (UR)” value in the data set on Caco-2 cancer cells [11] was 98.74% and 98.74 ± 8.7 %. Further, in the data set on Caco-2 cancer cells [11], the “% Viable cells (LL)” value amounted to 0.02%. Besides, the “total ATPase activity” value in data set [12] worked out at 42.2%.
